Reference: PubChem BioAssay AID212 (DTP/NCI, 2004)
Where “and” joins values, the source holds several entries; their conditions need not be identical. Equal entries are not always repeated. Inconclusive results are not listed. *1 amine or outer side, *2 acyl side, *3 side chain or, on linkers, in order; H or OH if unused. Where a SMILES comes first, the peptide text is derived from it. [ ]: non-standard residue; d: D form. The star is where a group is joined. X2 = CCC(=O)CC1CC(C)CC(C(=O)[*:2])N1[*:1]; X1 = CCCCCCCCC(C)C(=O)*; Aib = CC(C)(N)C(=O)O; X3 = CC(CN(C)CCO)N*

Test system: BDF1 mice, colon carcinoma 38 sc, T/C %
Test: NCI In Vivo Anticancer Drug Screen. Data for tumor model Colon Carcinoma 38 (subcutaneous) in B6D2F1 (BDF1) mice
Outline: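 Compound antitumor activity was assessed in mice carrying transplantable tumors. Survival or tumor size was recorded, and each value is the treated-group measurement divided by that of the vehicle-treated control group.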

[1] = endpoint: median tumor weight (est.), dose: 25.0 mg/kg/injection, schedule: Q07DX003 (ip), vehicle: Klucel (hydroxypropylcellulose) (HPC), higher = larger tumour
[2] = endpoint: median tumor weight (est.), dose: 50.0 mg/kg/injection, schedule: Q07DX003 (ip), vehicle: Klucel (hydroxypropylcellulose) (HPC), higher = larger tumour
[3] = endpoint: median tumor weight (est.), dose: 12.5 mg/kg/injection, schedule: Q07DX002 (ip), vehicle: saline, higher = larger tumour
[4] = endpoint: median tumor weight (est.), dose: 25.0 mg/kg/injection, schedule: Q07DX002 (ip), vehicle: saline, higher = larger tumour

CCCCCCCCC(C)C(=O)N1CCCC1C(=O)N1C(CC(=O)CC)CC(C)CC1C(=O)NC(C)C(=O)NC(C)(C)C(=O)NC(C)(C)C(=O)NC(C(=O)NC(C)C(=O)NC(C)(C)C(=O)NC(C)(C)C(=O)NC(C)CN(C)CCO)C(C)CC (stereo not drawn) (X1-P[X2]A[Aib][Aib]IA[Aib][Aib]-X3; configuration not given here)
T/C (endpoint: median tumor weight (est.), dose: 0.31 mg/kg/injection, schedule: Q07DX002 (ip), vehicle: Klucel (hydroxypropylcellulose) (HPC), higher = larger tumour): 123 % of control
T/C (endpoint: median tumor weight (est.), dose: 1.25 mg/kg/injection, schedule: Q07DX002 (ip), vehicle: Klucel (hydroxypropylcellulose) (HPC), higher = larger tumour): 86 % of control and 91 % of control
T/C (endpoint: median tumor weight (est.), dose: 2.5 mg/kg/injection, schedule: Q07DX002 (ip), vehicle: Klucel (hydroxypropylcellulose) (HPC), higher = larger tumour): 119 % of control
T/C (endpoint: median tumor weight (est.), dose: 5.0 mg/kg/injection, schedule: Q07DX002 (ip), vehicle: Klucel (hydroxypropylcellulose) (HPC), higher = larger tumour): 103 % of control and 104 % of control
T/C (endpoint: median tumor weight (est.), dose: 10.0 mg/kg/injection, schedule: Q07DX002 (ip), vehicle: Klucel (hydroxypropylcellulose) (HPC), higher = larger tumour): 102 % of control

N#CC(C#N)=C/C=C/c1cccc([N+](=O)[O-])c1
T/C (endpoint: median tumor weight (est.), dose: 6.25 mg/kg/injection, schedule: Q07DX003 (ip), vehicle: Klucel (hydroxypropylcellulose) (HPC), higher = larger tumour): 79 % of control
T/C (endpoint: median tumor weight (est.), dose: 12.5 mg/kg/injection, schedule: Q07DX003 (ip), vehicle: Klucel (hydroxypropylcellulose) (HPC), higher = larger tumour): 77 % of control
T/C [1]: 76 % of control
T/C [2]: 60 % of control

CC(=O)Nc1ccc(O)c(O)c1
T/C (endpoint: median tumor weight (est.), dose: 12.5 mg/kg/injection, schedule: Q07DX002 (ip), vehicle: saline with Tween-80, higher = larger tumour): 112 % of control
T/C (endpoint: median tumor weight (est.), dose: 25.0 mg/kg/injection, schedule: Q07DX002 (ip), vehicle: saline with Tween-80, higher = larger tumour): 86 % of control
T/C (endpoint: median tumor weight (est.), dose: 50.0 mg/kg/injection, schedule: Q07DX002 (ip), vehicle: saline with Tween-80, higher = larger tumour): 100 % of control and 102 % of control
T/C (endpoint: median tumor weight (est.), dose: 100.0 mg/kg/injection, schedule: Q07DX002 (ip), vehicle: saline with Tween-80, higher = larger tumour): 66 % of control and 83 % of control
T/C (endpoint: median tumor weight (est.), dose: 200.0 mg/kg/injection, schedule: Q07DX002 (ip), vehicle: saline with Tween-80, higher = larger tumour): 90 % of control and 95 % of control
T/C (endpoint: median tumor weight (est.), dose: 400.0 mg/kg/injection, schedule: Q07DX002 (ip), vehicle: saline with Tween-80, higher = larger tumour): 74 % of control and 75 % of control and 86 % of control
T/C (endpoint: median tumor weight (est.), dose: 800.0 mg/kg/injection, schedule: Q07DX002 (ip), vehicle: saline with Tween-80, higher = larger tumour): 72 % of control

CC1OC(OC2CC(O)(C(=O)CO)Cc3c(O)c4c(c(O)c32)C(=O)c2ccccc2C4=O)CC(N)C1O (stereo not drawn)
T/C (endpoint: median survival time, dose: 1.2 mg/kg/injection, schedule: Q07DX003 (iv), vehicle: saline, higher = longer survival): 108 % of control
T/C (endpoint: median survival time, dose: 1.9 mg/kg/injection, schedule: Q07DX003 (iv), vehicle: saline, higher = longer survival): 111 % of control
T/C (endpoint: median tumor weight (est.), dose: 0.12 mg/kg/injection, schedule: Q07DX002 (ip), vehicle: water, higher = larger tumour): 120 % of control
T/C (endpoint: median tumor weight (est.), dose: 0.25 mg/kg/injection, schedule: Q07DX002 (ip), vehicle: saline, higher = larger tumour): 113 % of control
T/C (endpoint: median tumor weight (est.), dose: 0.25 mg/kg/injection, schedule: Q07DX002 (ip), vehicle: water, higher = larger tumour): 90 % of control
T/C (endpoint: median tumor weight (est.), dose: 0.5 mg/kg/injection, schedule: Q07DX002 (ip), vehicle: saline, higher = larger tumour): 104 % of control
T/C (endpoint: median tumor weight (est.), dose: 0.5 mg/kg/injection, schedule: Q07DX002 (ip), vehicle: water, higher = larger tumour): 78 % of control
T/C (endpoint: median tumor weight (est.), dose: 1.0 mg/kg/injection, schedule: Q07DX002 (ip), vehicle: saline, higher = larger tumour): 69 % of control
T/C (endpoint: median tumor weight (est.), dose: 1.0 mg/kg/injection, schedule: Q07DX002 (ip), vehicle: water, higher = larger tumour): 23 % of control
T/C (endpoint: median tumor weight (est.), dose: 2.0 mg/kg/injection, schedule: Q07DX002 (ip), vehicle: saline, higher = larger tumour): 72 % of control

COc1ccc2[nH]c3c(c2c1)CCNC3CC(C)CCC=C(C)C (stereo not drawn)
T/C (endpoint: median tumor weight (est.), dose: 12.5 mg/kg/injection, schedule: Q07DX002 (ip), vehicle: Klucel (hydroxypropylcellulose) (HPC), higher = larger tumour): 88 % of control and 97 % of control
T/C (endpoint: median tumor weight (est.), dose: 25.0 mg/kg/injection, schedule: Q07DX002 (ip), vehicle: Klucel (hydroxypropylcellulose) (HPC), higher = larger tumour): 82 % of control
T/C (endpoint: median tumor weight (est.), dose: 50.0 mg/kg/injection, schedule: Q07DX002 (ip), vehicle: Klucel (hydroxypropylcellulose) (HPC), higher = larger tumour): 57 % of control

CCCCCC(=O)O[C@]1(C(C)=O)CC[C@H]2[C@@H]3CCC4=CC(=O)CC[C@]4(C)[C@H]3CC[C@@]21C
T/C [1]: 78 % of control
T/C [2]: 62 % of control
T/C (endpoint: median tumor weight (est.), dose: 100.0 mg/kg/injection, schedule: Q07DX003 (ip), vehicle: Klucel (hydroxypropylcellulose) (HPC), higher = larger tumour): 81 % of control
T/C (endpoint: median tumor weight (est.), dose: 200.0 mg/kg/injection, schedule: Q07DX003 (ip), vehicle: Klucel (hydroxypropylcellulose) (HPC), higher = larger tumour): 82 % of control
T/C (endpoint: median tumor weight (est.), dose: 400.0 mg/kg/injection, schedule: Q07DX003 (ip), vehicle: Klucel (hydroxypropylcellulose) (HPC), higher = larger tumour): 49 % of control

CC(=O)N(C)c1ccc(Nc2cc(C)[nH]c3ccc4ncnc4c23)cc1
T/C [3]: 118 % of control and 104 % of control
T/C [4]: 74 % of control and 80 % of control

CSC(SC)=C1C(=O)NC(=O)NC1=O
T/C (endpoint: median tumor weight (est.), dose: 6.25 mg/kg/injection, schedule: Q07DX002 (ip), vehicle: saline, higher = larger tumour): 85 % of control
T/C [3]: 70 % of control
T/C [4]: 83 % of control
T/C (endpoint: median tumor weight (est.), dose: 50.0 mg/kg/injection, schedule: Q07DX002 (ip), vehicle: saline, higher = larger tumour): 45 % of control

CC(C)NCC(O)COc1cccc2ccccc12 (stereo not drawn)
T/C (endpoint: median tumor weight (est.), dose: 4.0 mg/kg/injection, schedule: Q07DX002 (ip), vehicle: Klucel (hydroxypropylcellulose) (HPC), higher = larger tumour): 122 % of control
T/C (endpoint: median tumor weight (est.), dose: 8.0 mg/kg/injection, schedule: Q07DX002 (ip), vehicle: Klucel (hydroxypropylcellulose) (HPC), higher = larger tumour): 100 % of control
T/C (endpoint: median tumor weight (est.), dose: 64.0 mg/kg/injection, schedule: Q07DX002 (ip), vehicle: Klucel (hydroxypropylcellulose) (HPC), higher = larger tumour): 88 % of control
